Patent US9271960B2, “Tetrahydrocarbazoles as active agents for inhibiting VEGF production by translational control” (PTC Therapeutics, Inc., priority 2004, dated 2016)

These compounds were tested on VEGF (assay: Hypoxia-inducible endogenous VEGF expression ELISA in HeLa cells). Conditions: Homo sapiens, HeLa, compounds 1-155, hypoxic conditions (1% O2), VEGF protein by ELISA, read-out: ELISA Activity.
Format: cell-based
Summary of the method: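 HeLa cells held 24–48 h in hypoxia (1% O2) with a concentration series of compound; VEGF secreted into media quantified by ELISA against a standard curve. Parallel Cell Titer Glo viability under identical conditions gives CC50; EC50 from percent-inhibition curves.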

Compound | EC50
O=C(NC1CCCc2c1[nH]c1ccc(Br)cc21)c1cccs1 (stereo not drawn) [Compound 128, Thiophene-2-carboxylic acid (6-bromo-2,3,4,9-tetrahydro-1H-carbazol-1-yl)-amide] | < 10 nM
COC(=O)c1ccc2[nH]c3c(c2c1)CCCC3n1cccc1 (stereo not drawn) [Compound 115, 8-Pyrrol-1-yl-6,7,8,9-tetrahydro-5H-carbazole-3-carboxylic acid methyl ester] | > 1000 nM
c1ccn(C2CCCc3c2[nH]c2ccc(N4CCOCC4)cc32)c1 (stereo not drawn) [Compound 104, 6-Morpholin-4-yl-1-pyrrol-1-yl-2,3,4,9-tetrahydro-1H-carbazole] | > 1000 nM
Cc1nnsc1C(=O)NC1CCCc2c1[nH]c1ccc(Br)cc21 (stereo not drawn) [Compound 103, 4-Methyl-[1,2,3]thiadiazole-5-carboxylic acid (6-bromo-2,3,4,9-tetrahydro-1H-carbazol-1-yl)-amide] | 200 to 1000 nM
COc1cccc(CNC2CCCc3c2[nH]c2ccc(Br)cc32)c1OC (stereo not drawn) [Compound 55, (6-Bromo-2,3,4,9-tetrahydro-1H-carbazol-1-yl)-(2,3-dimethoxy-benzyl)-amine] | 40 to 200 nM
c1ccc2c3c([nH]c2c1)C(n1cccc1)CCC3 (stereo not drawn) [Compound 102, 1-Pyrrol-1-yl-2,3,4,9-tetrahydro-1H-carbazole] | > 1000 nM
FC(F)(F)Oc1ccc2[nH]c3c(c2c1)CCCC3Nc1ccccc1 (stereo not drawn) [Compound 34, Phenyl-(6-trifluoromethoxy-2,3,4,9-tetrahydro-1H-carbazol-1-yl)-amine] | 10 to 40 nM

Same assay, conditions: Homo sapiens, HeLa, compounds 191-239, hypoxic conditions, VEGF protein by ELISA, read-out: ELISA Activity EC50

Compound | EC50
Oc1ccc(C2CCCc3c2[nH]c2ccc(Cl)cc32)cc1 (stereo not drawn) [Compound 223] | 40 to 200 nM
COCCN(CCOC)CC(O)COc1ccc(C2CCCCc3c2[nH]c2ccc(Cl)cc32)cc1 (stereo not drawn) [Compound 234] | < 10 nM
